Experiments:
Assay in all cases: KINOMEscan Max
Assay type in all cases: binding
ABL2 = ABL2 (Homo sapiens, UniProt P42684)
In short: (§1)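 qPCR read-out of a DNA tag measures how much tagged kinase stays bound to immobilized active-site ligand when test compound is present, i.e. competition binding.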

ACVR1B = ACVR1B (Homo sapiens, UniProt P36896)
In short: as §1

BLK = BLK (Homo sapiens, UniProt P51451)
In short: as §1

CDK5 = molecular target: T1, CDK5 (Homo sapiens, UniProt Q00535)
T1 construct: DNA tag (qPCR label); purchased Ambit Kinomescan (contract screening)
In short: as §1

CDK8 = molecular target: T2, CDK8 (Homo sapiens, UniProt P49336); conditions: 1 μM
T2 construct: purchased Ambit (KINOMEscan Max service)
In short: as §1

CDKL5 = molecular target: T3, CDKL5 (Homo sapiens, UniProt O76039)
T3 construct: DNA tag (qPCR read-out)
In short: as §1

CLK2 = molecular target: T4, CLK2 (Homo sapiens, UniProt P49760)
T4 construct: DNA tag (qPCR read-out)
In short: as §1

CSNK1G2 = molecular target: T5, CSNK1G2 (Homo sapiens, UniProt P78368); conditions: 1 μM
T5 construct: purchased Ambit (KINOMEscan Max panel service)
In short: as §1

DLK = molecular target: T6, DLK (Homo sapiens, UniProt Q12852); conditions: 1 μM
T6 construct: DNA tag (qPCR read-out)
T6 sequence (Q12852 whole entry): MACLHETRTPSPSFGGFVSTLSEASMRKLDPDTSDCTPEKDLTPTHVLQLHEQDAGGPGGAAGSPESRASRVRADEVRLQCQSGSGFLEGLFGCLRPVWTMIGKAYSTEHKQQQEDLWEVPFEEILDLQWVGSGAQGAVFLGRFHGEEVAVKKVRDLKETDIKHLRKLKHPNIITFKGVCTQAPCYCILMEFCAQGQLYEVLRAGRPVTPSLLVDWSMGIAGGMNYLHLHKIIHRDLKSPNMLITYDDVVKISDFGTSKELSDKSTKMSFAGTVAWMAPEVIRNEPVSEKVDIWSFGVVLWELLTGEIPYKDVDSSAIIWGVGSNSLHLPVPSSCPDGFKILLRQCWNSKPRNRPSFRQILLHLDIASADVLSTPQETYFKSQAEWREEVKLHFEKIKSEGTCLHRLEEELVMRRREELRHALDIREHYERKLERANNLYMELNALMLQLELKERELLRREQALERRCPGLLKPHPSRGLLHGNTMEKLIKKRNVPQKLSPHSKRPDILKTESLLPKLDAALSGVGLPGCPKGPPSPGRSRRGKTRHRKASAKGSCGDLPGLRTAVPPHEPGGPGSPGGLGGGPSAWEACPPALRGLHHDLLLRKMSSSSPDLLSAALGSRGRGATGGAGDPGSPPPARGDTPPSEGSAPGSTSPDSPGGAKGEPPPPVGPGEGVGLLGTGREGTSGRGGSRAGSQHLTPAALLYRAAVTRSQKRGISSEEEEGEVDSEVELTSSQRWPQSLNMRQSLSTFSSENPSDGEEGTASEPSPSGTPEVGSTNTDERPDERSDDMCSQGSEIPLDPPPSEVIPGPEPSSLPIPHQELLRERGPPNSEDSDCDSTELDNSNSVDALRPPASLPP
In short: as §1

ERK8 = ERK8 (Homo sapiens, UniProt Q8TD08)
In short: as §1

FLT3(D835Y) = molecular target: T7, FLT3(D835Y) (Homo sapiens, UniProt P36888, D835Y)
T7 construct: DNA tag (qPCR read-out); purchased Ambit Kinomescan
In short: as §1

FLT3(R834Q) = molecular target: T8, FLT3(R834Q) (Homo sapiens, UniProt P36888, R834Q)
T8 construct: purchased Ambit Kinomescan (contract panel, KINOMEscan Max)
In short: as §1

GCN2(Kin.Dom.S808G) = molecular target: T9, GCN2(Kin.Dom.S808G) (Homo sapiens, UniProt Q9P2K8, S808G)
T9 construct: GCN2(Kin.Dom.S808G)
In short: as §1

HUNK = molecular target: T10, HUNK (Homo sapiens, UniProt P57058)
T10 construct: purchased Ambit Kinomescan (contract panel, KINOMEscan Max)
In short: as §1

IGF1R = molecular target: T11, IGF1R (Homo sapiens, UniProt P08069)
T11 construct: purchased Ambit Kinomescan (contract panel, KINOMEscan Max)
T11 sequence (P08069 31-1367): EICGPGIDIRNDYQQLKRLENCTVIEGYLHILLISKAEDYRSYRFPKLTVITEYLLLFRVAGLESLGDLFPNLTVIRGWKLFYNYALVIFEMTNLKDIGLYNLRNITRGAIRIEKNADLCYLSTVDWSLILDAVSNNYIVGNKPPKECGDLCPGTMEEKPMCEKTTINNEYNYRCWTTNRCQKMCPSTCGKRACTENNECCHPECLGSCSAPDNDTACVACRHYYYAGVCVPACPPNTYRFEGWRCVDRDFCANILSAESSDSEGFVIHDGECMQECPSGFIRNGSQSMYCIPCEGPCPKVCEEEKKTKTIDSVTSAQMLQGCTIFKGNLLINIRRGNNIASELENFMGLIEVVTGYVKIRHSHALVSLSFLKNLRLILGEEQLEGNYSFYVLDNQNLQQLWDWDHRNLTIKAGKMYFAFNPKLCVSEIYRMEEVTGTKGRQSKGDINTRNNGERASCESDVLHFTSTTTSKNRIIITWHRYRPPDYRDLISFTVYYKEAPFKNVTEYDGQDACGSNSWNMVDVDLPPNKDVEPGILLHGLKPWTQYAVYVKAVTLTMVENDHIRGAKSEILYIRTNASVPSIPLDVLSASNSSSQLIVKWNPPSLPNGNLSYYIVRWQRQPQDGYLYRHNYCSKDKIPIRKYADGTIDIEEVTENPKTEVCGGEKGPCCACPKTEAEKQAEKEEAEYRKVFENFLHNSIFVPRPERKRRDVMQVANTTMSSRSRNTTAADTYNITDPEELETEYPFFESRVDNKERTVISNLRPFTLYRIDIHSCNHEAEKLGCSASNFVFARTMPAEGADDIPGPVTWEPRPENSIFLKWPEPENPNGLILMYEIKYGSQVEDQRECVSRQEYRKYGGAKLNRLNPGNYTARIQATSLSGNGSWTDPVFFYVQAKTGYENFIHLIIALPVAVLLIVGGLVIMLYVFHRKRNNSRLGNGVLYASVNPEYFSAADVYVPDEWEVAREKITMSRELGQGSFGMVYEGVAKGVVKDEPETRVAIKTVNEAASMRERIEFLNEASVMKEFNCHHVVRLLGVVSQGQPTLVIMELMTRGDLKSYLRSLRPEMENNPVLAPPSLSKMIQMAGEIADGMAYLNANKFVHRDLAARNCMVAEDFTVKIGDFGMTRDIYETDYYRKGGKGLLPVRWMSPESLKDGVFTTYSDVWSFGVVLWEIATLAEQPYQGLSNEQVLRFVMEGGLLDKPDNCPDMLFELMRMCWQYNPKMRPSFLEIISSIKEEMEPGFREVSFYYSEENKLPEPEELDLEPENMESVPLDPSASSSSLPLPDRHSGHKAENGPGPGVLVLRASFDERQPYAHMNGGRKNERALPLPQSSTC
In short: as §1

IRAK3 = molecular target: T12, IRAK3 (Homo sapiens, UniProt Q9Y616)
T12 construct: purchased Ambit (KINOMEscan Max service)
In short: as §1

KIT = KIT (Homo sapiens, UniProt P10721)
Chain of KIT (P10721 26-976): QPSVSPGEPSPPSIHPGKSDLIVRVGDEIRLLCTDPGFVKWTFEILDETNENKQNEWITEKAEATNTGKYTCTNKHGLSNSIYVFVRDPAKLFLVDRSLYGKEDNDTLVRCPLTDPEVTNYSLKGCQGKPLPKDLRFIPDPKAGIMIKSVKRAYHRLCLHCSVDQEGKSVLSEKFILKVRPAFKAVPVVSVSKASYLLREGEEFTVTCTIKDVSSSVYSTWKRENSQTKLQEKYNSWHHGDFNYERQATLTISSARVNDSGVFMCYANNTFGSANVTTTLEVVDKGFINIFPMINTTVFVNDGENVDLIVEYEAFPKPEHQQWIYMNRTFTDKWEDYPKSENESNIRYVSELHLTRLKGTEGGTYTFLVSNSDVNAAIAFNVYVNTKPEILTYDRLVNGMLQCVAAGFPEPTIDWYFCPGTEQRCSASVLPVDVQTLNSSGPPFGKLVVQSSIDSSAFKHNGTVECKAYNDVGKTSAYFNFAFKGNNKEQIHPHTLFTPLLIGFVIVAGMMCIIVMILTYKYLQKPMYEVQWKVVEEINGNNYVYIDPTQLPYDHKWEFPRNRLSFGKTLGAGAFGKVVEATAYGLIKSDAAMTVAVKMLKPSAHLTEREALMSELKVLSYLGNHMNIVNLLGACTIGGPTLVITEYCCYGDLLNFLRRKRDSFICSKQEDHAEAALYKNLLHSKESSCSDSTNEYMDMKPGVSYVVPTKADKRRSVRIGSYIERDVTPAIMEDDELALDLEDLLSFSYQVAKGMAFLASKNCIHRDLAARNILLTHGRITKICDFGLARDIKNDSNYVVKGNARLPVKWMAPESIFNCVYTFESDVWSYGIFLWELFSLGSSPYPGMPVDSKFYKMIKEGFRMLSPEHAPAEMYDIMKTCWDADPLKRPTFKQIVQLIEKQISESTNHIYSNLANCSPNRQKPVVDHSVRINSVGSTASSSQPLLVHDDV
In short: as §1

KIT(V559D.V654A) = molecular target: T13, KIT(V559D.V654A) (Homo sapiens, UniProt P10721, V559D/V654A)
T13 construct: purchased Ambit Kinomescan (contract panel)
T13 sequence (P10721 26-976 V559D/V654A): as the sequence (P10721 26-976) above, with V534D, V629A counted along it
In short: as §1

MARK2 = MARK2 (Homo sapiens, UniProt Q7KZI7)
Chain of MARK2 (Q7KZI7 whole entry): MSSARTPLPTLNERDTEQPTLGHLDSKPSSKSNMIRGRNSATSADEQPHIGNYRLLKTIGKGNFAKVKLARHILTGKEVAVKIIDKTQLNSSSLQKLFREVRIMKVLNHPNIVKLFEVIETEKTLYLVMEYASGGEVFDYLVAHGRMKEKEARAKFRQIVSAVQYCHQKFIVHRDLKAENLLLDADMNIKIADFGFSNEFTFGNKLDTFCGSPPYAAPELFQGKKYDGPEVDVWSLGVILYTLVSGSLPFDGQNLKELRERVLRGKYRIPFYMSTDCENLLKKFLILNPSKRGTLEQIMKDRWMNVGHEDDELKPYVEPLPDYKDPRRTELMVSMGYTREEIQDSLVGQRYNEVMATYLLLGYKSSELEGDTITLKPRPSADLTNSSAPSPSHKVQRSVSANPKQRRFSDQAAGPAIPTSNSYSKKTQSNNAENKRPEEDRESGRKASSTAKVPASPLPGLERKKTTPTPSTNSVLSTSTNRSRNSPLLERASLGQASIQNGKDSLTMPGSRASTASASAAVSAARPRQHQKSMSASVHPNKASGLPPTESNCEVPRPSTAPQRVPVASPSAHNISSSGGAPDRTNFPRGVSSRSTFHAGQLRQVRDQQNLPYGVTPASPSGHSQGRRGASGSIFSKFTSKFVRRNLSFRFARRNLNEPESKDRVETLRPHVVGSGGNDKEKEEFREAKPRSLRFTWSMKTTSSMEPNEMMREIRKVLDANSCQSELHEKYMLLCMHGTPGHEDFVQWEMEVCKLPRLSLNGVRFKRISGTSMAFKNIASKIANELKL
In short: as §1

MET(M1250T) = molecular target: T14, MET(M1250T) (Homo sapiens, UniProt P08581, M1250T); conditions: 1 μM
T14 construct: DNA tag (qPCR read-out)
In short: as §1

MKK7 = MKK7 (Homo sapiens, UniProt O14733); conditions: 1 μM
In short: as §1

MYO3B = MYO3B (Homo sapiens, UniProt Q8WXR4)
In short: as §1

NEK9 = NEK9 (Homo sapiens, UniProt Q8TD19)
Chain of NEK9 (Q8TD19 whole entry): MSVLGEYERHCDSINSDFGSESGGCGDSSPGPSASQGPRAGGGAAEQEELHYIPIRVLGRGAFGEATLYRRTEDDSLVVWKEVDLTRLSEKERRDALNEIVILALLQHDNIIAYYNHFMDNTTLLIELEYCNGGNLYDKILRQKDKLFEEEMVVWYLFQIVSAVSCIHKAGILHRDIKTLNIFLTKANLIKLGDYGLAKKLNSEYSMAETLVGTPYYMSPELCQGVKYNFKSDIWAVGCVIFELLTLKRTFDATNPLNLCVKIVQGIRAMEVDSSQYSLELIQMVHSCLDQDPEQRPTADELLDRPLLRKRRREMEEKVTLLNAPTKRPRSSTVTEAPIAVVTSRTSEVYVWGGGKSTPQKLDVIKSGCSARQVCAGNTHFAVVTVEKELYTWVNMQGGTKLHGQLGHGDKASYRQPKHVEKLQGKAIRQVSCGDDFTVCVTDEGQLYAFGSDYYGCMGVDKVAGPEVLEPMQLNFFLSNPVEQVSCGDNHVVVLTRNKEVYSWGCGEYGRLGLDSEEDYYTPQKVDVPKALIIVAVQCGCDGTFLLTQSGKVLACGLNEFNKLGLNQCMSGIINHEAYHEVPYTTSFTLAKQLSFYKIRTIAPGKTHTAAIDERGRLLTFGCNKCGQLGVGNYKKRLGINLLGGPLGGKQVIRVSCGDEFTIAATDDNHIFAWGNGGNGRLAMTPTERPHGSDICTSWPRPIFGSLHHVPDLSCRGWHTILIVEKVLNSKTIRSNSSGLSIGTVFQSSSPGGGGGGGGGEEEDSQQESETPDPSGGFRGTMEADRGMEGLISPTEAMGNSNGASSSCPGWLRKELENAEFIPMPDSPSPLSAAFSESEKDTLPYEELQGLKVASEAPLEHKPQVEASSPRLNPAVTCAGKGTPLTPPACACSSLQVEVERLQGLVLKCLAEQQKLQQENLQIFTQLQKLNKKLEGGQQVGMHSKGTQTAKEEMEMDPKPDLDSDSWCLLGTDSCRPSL
In short: as §1

PAK4 = molecular target: T15, PAK4 (Homo sapiens, UniProt O96013)
T15 construct: purchased Ambit (KINOMEscan Max service)
In short: as §1

PFTAIRE2 = PFTAIRE2 (Homo sapiens, UniProt Q96Q40)
In short: as §1

PIK3CA(H1047L) = molecular target: T16, PIK3CA(H1047L) (Homo sapiens, UniProt P42336, H1047L)
T16 construct: DNA tag (qPCR read-out)
In short: as §1

PKN2 = molecular target: T17, PKN2 (Homo sapiens, UniProt Q16513)
T17 construct: purchased Ambit (KINOMEscan Max service)
In short: as §1

PLK2 = molecular target: T18, PLK2 (Homo sapiens, UniProt Q9NYY3); conditions: 1 μM
T18 construct: DNA tag (qPCR read-out)
In short: as §1

PRKG1 = molecular target: T19, PRKG1 (Homo sapiens, UniProt Q13976)
T19 construct: DNA tag (qPCR read-out)
In short: as §1

PRKX = molecular target: T20, PRKX (Homo sapiens, UniProt P51817)
T20 construct: DNA tag (qPCR read-out)
In short: as §1

[1] = molecular target: T21, RSK4(Kin.Dom.1-N-terminal) (Homo sapiens, UniProt Q9UK32); conditions: 1 μM
T21 construct: RSK4(Kin.Dom.1-N-terminal); DNA tag (qPCR read-out)
In short: as §1

STK33 = STK33 (Homo sapiens, UniProt Q9BYT3)
In short: as §1

TESK1 = TESK1 (Homo sapiens, UniProt Q15569)
In short: as §1

## NCCCNc1nc2c(Br)c(Br)c(Br)c(Br)c2[nH]1 [Compound 11, N-(3-aminopropyl)-4,5,6,7-tetrabromo-1H-benzo[d]imidazol-2-amine]
ABL2
  remaining binding at 1 µM: 100%
ACVR1B
  remaining binding at 1 µM: 100%
BLK
  remaining binding at 1 µM: 96%
CDK5
  remaining binding at 1 µM: 100%
CDK8
  % binding: 68%
CDKL5
  remaining binding at 1 µM: 25%
CLK2
  remaining binding at 1 µM: 31%
CSNK1G2
  % binding: 100%
DLK
  % binding: 87%
ERK8
  remaining binding at 1 µM: 72%
FLT3(D835Y)
  remaining binding at 1 µM: 10%
FLT3(R834Q)
  remaining binding at 1 µM: 100%
GCN2(Kin.Dom.S808G)
  remaining binding at 1 µM: 95%
HUNK
  remaining binding at 1 µM: 100%
IGF1R
  remaining binding at 1 µM: 100%
IRAK3
  remaining binding at 1 µM: 86%
KIT
  remaining binding at 1 µM: 96%
KIT(V559D.V654A)
  remaining binding at 1 µM: 100%
MARK2
  remaining binding at 1 µM: 94%
MET(M1250T)
  % binding: 56%
MKK7
  % binding: 100%
MYO3B
  remaining binding at 1 µM: 100%
NEK9
  remaining binding at 1 µM: 95%
PAK4
  remaining binding at 1 µM: 85%
PFTAIRE2
  remaining binding at 1 µM: 73%
PIK3CA(H1047L)
  remaining binding at 1 µM: 100%
PKN2
  remaining binding at 1 µM: 80%
PLK2
  % binding: 31%
PRKG1
  remaining binding at 1 µM: 53%
PRKX
  remaining binding at 1 µM: 100%
[1]
  % binding: 100%
STK33
  remaining binding at 1 µM: 77%
TESK1
  remaining binding at 1 µM: 93%

— patent publication US20110230481A2, “DERIVATIVES OF TETRABROMOBENZIMIDAZOLE, A PROCESS FOR THE PREPARATION THEREOF, A PHARMACEUTICAL COMPOSITION COMPRISING THE SAME, A METHOD OF USING THE SAME, A METHOD FOR MODULATING OR REGULATING SERINE/THREONINE KINASES, AND SERINE/THREONINE KINASES MODULATING AGENT” (SELVITA S.A., priority 2009, published 2011)
